# Literature values as cited in patent US20070197568A1 (priority 2005, published 2007).
# Conditions: animals, at doses that inhibit tumor growth
smiles,measurement,value
"O=C(CCCCCCC(=O)Nc1ccccc1)NO [SAHA, N-Hydroxy-N′-phenyl octanediamide]",toxicity to the animal,no toxicity
